Format in all cases: cell-based
One experiment deals with acyl CoA oxidase. Put plainly: acyl CoA oxidase activity in SH-SY5Y cells. To be noted: 250 μM, 6 days (FIG. 1A). Here is the method:
(§1) SH-SY5Y cells were stored frozen and cells with passage numbers between 20 and 24 were utilized. When required, SH-SY5Y cells were thawed at 20-25° C. and quickly seeded at a density of 13.3×10^3 cell/cm^2 in 75 cm^2 flasks. SH-SY5Y cells were then grown in media containing 1:1 DMEM/F-12+100 mL/L FBS+10 mL/L I-glutamine at +37° C. and 5% CO2. SH-SY5Y cells were exposed to 250 μM decanoic acid (C10) or octanoic acid (C8) for 6 days.
(§2) To assess effects upon peroxisomal content and function, the following parameters were studied; (a) activity of the peroxisomal marker enzyme, acyl CoA oxidase, (b) expression of Pex11a, a gene associated with peroxisomal biogenesis and (c) evaluation of peroxisomal fatty acid beta oxidation by monitoring the chain shortening of a very long chain fatty acid, C22, to C18, C16 and C14.

The subject of a further experiment is SH-SY5Y cells. Put plainly: peroxisomal fatty acid beta oxidation (chain shortening of C22 to C18, C16 and C14) in SH-SY5Y cells. To be noted: 250 μM, 6 days, chain shortening of C22 to C18, C16 and C14 (FIG. 1C). Here is the method:
as §1, §2

A further experiment deals with Pex11a. Nature of the experiment: expression of Pex11a in SH-SY5Y cells. To be noted: 250 μM, 6 days (FIG. 1B). As to the method:
as §1, §2

Molecules are shown by their SMILES.

Turning to `CCCCCCCCCC(=O)O` [C10, Decanoic acid], in the experiment on acyl CoA oxidase, the “acyl CoA oxidase activity” value is given as “increase in acyl CoA oxidase activity”. Besides, the “capacity to perform peroxisomal beta oxidation” value in the experiment with SH-SY5Y cells was “increased capacity to perform peroxisomal beta oxidation”. Moreover, in the experiment with Pex11a, the Pex11a expression entry is recorded as “increased Pex11a”.

Source of the values: patent US20260283996A1, “DECANOIC ACID AND ITS COMPOSITIONS FOR USE IN THE PREVENTION AND/OR TREATMENT OF PEROXISOMAL DISORDERS” (SOCIÉTÉ DES PRODUITS NESTLÉ S.A., priority 2023, published 2026).
